Values joined by “and” are separate entries in the source; they are usually repeats but may differ in a detail not shown here. Equal entries are not always repeated.
Tests used:
[1] = ABTS radical cation scavenging assay; settings: 7 min, room temperature, 734 nm; mean ± SD, n = 3; read-out: ABTS^•+ Scavenge IC50
Procedure: The 2,2′-azinobis(3-ethylbenzothiazoline-6-sulphonic acid) radical cation (ABTS^•+), which absorbs at 734 nm, is formed by oxidation of the commercially available neutral species. This oxidation can be done by potassium persulphate, manganese (IV) oxide, or electrochemical methods. In the presence of a hydrogen-donating antioxidant, the […] quenches the hydrogen atom, which is followed by decolorization. In this study, the ABTS^•+ was produced by mixing 7 mM ABTS stock solution with 2.45 mM potassium persulfate and allowing the mixture to stand in a dark at room temperature for 16 h before use. Different concentrations of the tested compounds (0.1 mL) were added to 1 mL ABTS^•+ solution. The reaction mixtures were mixed thoroughly, incubated at room temperature for 7 min, and the absorbance was recorded at 734 nm. The ability to scavenge the ABTS radical cation was calculated using the following equation:(3) % ABTS radical cation scavenge = (1 − At/A0) × 100 where A0 is the absorbance of the control and At is the absorbance of the tested compound. The ABTS^•+ solution without any sample was used as a control, prepared by using the same procedure. From the percentage of the scavenging activity at different tested compounds concentrations, IC50 values were calculated and compared with those of standard L(+)-ascorbic acid solution.
(§1) All data on AChE inhibition/antioxidant activity are the average of triplicate analyses (n = 3) and the data were recorded as mean ± standard deviation. Regression analysis was performed to calculate the dose-response relation and IC50 values were obtained from the equations y = a ± bx.

[2] = DPPH free radical scavenging assay; settings: 30 min, room temperature, dark, 517 nm; mean ± SD, n = 3; read-out: DPPH^• Scavenge IC50
Description: The 2,2-diphenyl-1-pycrylhydrazyl free radical (DPPH^•) scavenging method is widely used to evaluate the free radical scavenging ability of natural antioxidants. 2,2-Diphenyl-1-pycrylhydrazyl is a stable nitrogen centered free radical, which has a violet color that changes to yellow after reduction by the process of either hydrogen atom or single electron transfer mechanism. Compounds that are able to execute this reaction can be considered antioxidants and therefore radical scavengers. In the radical form, the DPPH molecule has an absorbance of 517 nm, which disappears after the acceptance of an electron or hydrogen radical from an antioxidant compound, to become a stable diamagnetic molecule. The DPPH^• scavenging activities of the tested compounds were estimated using the method of [35] with slight modification. To 1 mL methanolic solution of DPPH^• (0.08 mM), 0.1 mL of the tested compounds were added. The resulting mixture was shaken thoroughly and allowed to stand at room temperature in the dark for 30 min, after which the absorbance of the solution was measured at 517 nm. L(+)-Ascorbic acid was used as the positive control. The negative control contained DPPH^• and methanol. The ability to scavenge DPPH radical was calculated using the equation:(2) % DPPH radical scavenge = (1 − At/A0) × 100 where A0 is the absorbance of the control and At is the absorbance of the tested compound. The DPPH^• absorbance decreases with an increase in the DPPH radical scavenging activity.
as §1

[3] = target: acetylcholinesterase (AChE) from Electrophorus electricus (Electrophorus electricus, UniProt O42275); experiment: biochemical; settings: AChE from E. electricus; 15 min incubation at 37 °C, pH 8; mean ± SD, n = 3; read-out: AChE Inhibition IC50
Sequence of acetylcholinesterase (AChE) from Electrophorus electricus (O42275 24-633): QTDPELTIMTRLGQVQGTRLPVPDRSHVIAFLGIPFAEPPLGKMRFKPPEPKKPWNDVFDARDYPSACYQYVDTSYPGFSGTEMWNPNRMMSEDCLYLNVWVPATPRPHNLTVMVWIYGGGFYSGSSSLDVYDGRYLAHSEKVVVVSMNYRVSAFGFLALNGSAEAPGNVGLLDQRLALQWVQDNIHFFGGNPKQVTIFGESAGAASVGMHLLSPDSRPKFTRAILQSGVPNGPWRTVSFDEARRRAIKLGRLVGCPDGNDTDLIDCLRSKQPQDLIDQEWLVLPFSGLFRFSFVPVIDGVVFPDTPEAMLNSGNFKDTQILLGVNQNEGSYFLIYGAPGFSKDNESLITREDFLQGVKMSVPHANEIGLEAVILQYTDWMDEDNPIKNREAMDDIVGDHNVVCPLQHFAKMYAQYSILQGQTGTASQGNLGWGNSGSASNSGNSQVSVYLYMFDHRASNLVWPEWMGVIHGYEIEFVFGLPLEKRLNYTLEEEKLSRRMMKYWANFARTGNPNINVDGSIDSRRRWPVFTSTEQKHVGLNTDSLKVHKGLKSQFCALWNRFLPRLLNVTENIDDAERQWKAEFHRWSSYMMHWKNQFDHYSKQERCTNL

[4] = Fe(II)-chelating assay (inhibition of Fe^2+–ferrozine complex formation); settings: 10 min, room temperature, 562 nm
Description: Among the transition metals, Fe^2+ ions are well-known for their significant role as a prooxidants in the lipid oxidation process and the formation of hydroxyl radicals in Fenton-type reactions. However, effective chelating agents can reduce the damage resulting from these reactions. The most important spectrophotometric method for studying chelation activity is the inhibition of the Fe^2+–ferrozine complex formation, during which ferrozine reacts quantitatively with Fe^2+ ions in the […] of a chelating agent and complex formation is disrupted. Measurement of color reduction therefore allows estimation of the metal chelating activity of the coexisting chelator. The chelating abilities on Fe^2+ by the tested compounds were estimated by the method as described by Dinis. Briefly, 0.4 mL of the tested compound was added to 0.05 mL of FeCl2 (2 mM) solution. The reaction was initiated by the addition of ferrozine (0.2 mL, 5 mM). The total volume of the systems was adjusted to 4 mL with ethanol. Then, the mixture was shaken vigorously and left at room temperature for 10 min. […] The percentage of chelating effect was calculated by using the equation below:(4) % Chelating effect = (1 − At/A0) × 100 where A0 is the absorbance of the control and At is the absorbance of the tested compound.
(§2) Regression analysis was performed to calculate the dose-response relation and IC50 values were obtained from the equations y = a ± bx.

[5] = Ferric-reducing antioxidant power (FRAP) assay; settings: pH 3.6, 6 min, 593 nm; mean ± SD, n = 3
Procedure: The FRAP assay is a typical electron transfer-based method that measures the reduction of (Fe^3+)-ligand complex to the intensely blue-colored ferrous (Fe^2+)-ligand complex by antioxidants. The FRAP assay is carried out under acidic pH conditions in order to maintain iron solubility and more importantly, drive electron transfer. This will increase the redox potential, causing a shift in the dominant reaction mechanism. The FRAP assay was done according to the method described by Benzie and Strain [40] with slightly modifications. The stock solutions included 300 mM acetate buffer (pH 3.6), 10 mM 2,4,6-tris(2-pyridyl)-s-triazine (TPTZ) solution in ethanol, and 20 mM FeCl3 solution in 20 mM HCl. […] An aliquot of 0.1 mL of the tested compound was allowed to react with 3.0 mL of the FRAP working solution and 0.3 mL of water. […] The results are expressed as L(+)-ascorbic acid equivalent (AAE).
as §2

[6] = read-out: Chelation ability IC50 (Fe^2+ ions)

Compound: O=C1O[C@H]([C@@H](O)CO)C(O)=C1O [L(+)-Ascorbic acid]
- IC50 [1]: 0.11 µM
- IC50 [2]: 1.14 ± 0.03 µM

Compound: O=C(/C=C/c1ccc(O)c(O)c1)NCCc1ccc(O)c(O)c1 [N-trans-Caffeoyldopamine]
- IC50 [3]: 19.1 ± 0.83 µM
- IC50 ([4]; read-out: Chelation of ferrous ions IC50): 3480 µM
- IC50 [1]: 0.24 µM
- IC50 [2]: 5.95 ± 0.12 µM
- FRAP AAE (L(+)-ascorbic acid equivalent) [5]: 822.45 μmol/mmol and 822.45 ± 13.53 μmol/mmol

Compound: COc1cc(/C=C/C(=O)NCCc2ccc(O)c(O)c2)ccc1O [N-trans-Feruloyldopamine]
- IC50 [3]: 8.52 ± 0.27 µM
- IC50 [4, 6]: 3170 µM
- IC50 [1]: 0.74 µM
- IC50 [2]: 12.29 ± 0.04 µM
- FRAP AAE (L(+)-ascorbic acid equivalent) [5]: 661.53 ± 13.51 μmol/mmol

Compound: O=C([O-])CN(CCN(CC(=O)[O-])CC(=O)O)CC(=O)O.[Na+].[Na+] [Na2EDTA, disodium ethylenediaminetetraacetate]
- IC50 [4, 6]: 10 µM

Compound: O=C(O)/C=C/c1ccc(O)c(O)c1 [trans-Caffeic acid]
- IC50 [4, 6]: 12900 µM
- IC50 [1]: 1.19 ± 0.02 µM
- IC50 [2]: 18.9 ± 0.22 µM
- FRAP AAE (L(+)-ascorbic acid equivalent) [5]: 526.05 ± 12.87 μmol/mmol

Compound: COc1cc(/C=C/C(=O)O)ccc1O [trans-Ferulic acid]
- IC50 [3]: 20.6 ± 0.65 µM
- IC50 [4, 6]: 5060 µM
- IC50 [1]: 1.62 ± 0.01 µM
- IC50 [2]: 19.93 ± 0.18 µM

From publication PMC6027674, “Acetylcholinesterase Inhibition and Antioxidant Activity of N-trans-Caffeoyldopamine and N-trans-Feruloyldopamine” (Scientia Pharmaceutica, 2018)
